Laboratory results published in PubChem BioAssay (NCI).
“And” between values parts separate entries of the source, which are not always exact repeats. Identical values can stand only once.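 Method: 48-hour compound exposure of cells in 96-well plates, five concentrations, linear interpolation of endpoints. At the GI50, growth is halved. The concentration for full growth arrest is given as TGI.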

Key:
Assay in all cases: DTP human tumour cell line panel, 48 h
A498 renal = system: A498 renal
BT-549 breast = system: BT-549 breast
IGROV1 ovarian = system: IGROV1 ovarian
PC-3 prostate = system: PC-3 prostate
SW-620 colon = system: SW-620 colon
U251 CNS = system: U251 CNS
HT29 colon = system: HT29 colon
M14 melanoma = system: M14 melanoma
OVCAR-4 ovarian = system: OVCAR-4 ovarian
SK-MEL-28 melanoma = system: SK-MEL-28 melanoma

SMILES	GI50 (A498 renal) [µM]	TGI (A498 renal) [µM]	GI50 (BT-549 breast)	TGI (BT-549 breast)	GI50 (IGROV1 ovarian) [µM]	TGI (IGROV1 ovarian)	GI50 (PC-3 prostate) [µM]	TGI (PC-3 prostate)	GI50 (SW-620 colon) [µM]	TGI (SW-620 colon)	GI50 (U251 CNS) [µM]	TGI (U251 CNS) [µM]	TGI (HT29 colon)	TGI (M14 melanoma)	TGI (OVCAR-4 ovarian)	TGI (SK-MEL-28 melanoma)	GI50 (HT29 colon) [µM]	GI50 (M14 melanoma) [µM]	GI50 (OVCAR-4 ovarian) [µM]	GI50 (SK-MEL-28 melanoma) [µM]
O=C1/C(=C/c2ccc([N+](=O)[O-])s2)Oc2cc(Cl)ccc21	29.8	> 85.2	0.698 µM	2.09 µM	0.941	3.61 µM	0.387	1.75 µM	0.217	0.524 µM	1.02	2.21								
Cc1cc(=O)[nH]c(CNC(=O)c2ccc3ccccc3c2)n1		> 100				> 100 µM				> 100 µM		> 100	> 100 µM	> 100 µM	> 100 µM	> 100 µM				
CC(=O)OCC12CN(C#N)C3C4COC(CC41)C1(C(=O)N(C)c4ccccc41)C32 (stereo unspecified)				10.5 µM		85 µM		> 100 µM		59.6 µM		> 100	> 100 µM	61.9 µM	49.6 µM	62.9 µM				
OCC1OC2c3ccccc3COC2C1OCc1ccccc1 (stereo unspecified)						> 100 µM				> 100 µM		> 100	> 100 µM	> 100 µM	> 100 µM	> 100 µM				
N#CC1C[C@@H]2CC3(CCC2CN1C(=O)c1ccccc1)OCCO3 (stereo partly specified)		> 100				> 100 µM	> 100	> 100 µM		> 100 µM		> 100	> 100 µM	> 100 µM	> 100 µM	> 100 µM				
CCC12CCCN(Cc3ccccc3)C1c1c(n(C)c3ccccc13)C(CO)C2 (stereo unspecified)						218 µM				89.2 µM		134	72.2 µM			150 µM				
[O-]/N=[N+](/[O-])C1CCCCC1=[N+]1CCOCC1 (stereo unspecified)		> 100								> 100 µM		> 100	> 100 µM	> 100 µM	> 100 µM	> 100 µM				
COC(=O)[C@H](CC(C)C)NC(=O)[C@H](Cc1ccccc1)N1CC2C=CC1C2 (stereo partly specified)		> 100				> 100 µM				> 100 µM		> 100	> 100 µM	> 100 µM	> 100 µM	> 100 µM				
CN1C(=O)CC2(C)c3cc(O)cc(Br)c3N(C)C12 (stereo unspecified)		> 100				> 100 µM				> 100 µM		> 100	> 100 µM	> 100 µM		> 100 µM				
CC1(C)NC(=O)N(CCCCCCN2C(=O)NC(C)(C)C2=O)C1=O		> 100				> 100 µM				> 100 µM		> 100	> 100 µM	> 100 µM	> 100 µM	> 100 µM				
COC(=O)c1cc(NC(=O)c2cc(NC(=O)c3cc([N+](=O)[O-])n(C)c3)cn2C)cn1C	84	> 100	40.1 µM	> 100 µM	> 100	> 100 µM	> 100	> 100 µM	> 100	> 100 µM	32.7	> 100	31 µM	> 100 µM			7.74	15.2		
COc1cc2c(c(O)c1Cl)C(=O)c1c(O)cc(C[C@H](C)O)cc1[C@H]2[C@H]1c2cc(C[C@H](C)O)cc(O)c2C(=O)c2c1cc(OC)c(Cl)c2O			2.51 µM and 14 µM	59 µM and 55.1 µM		39 µM and > 100 µM		75 µM and > 100 µM		75 µM and > 100 µM			75 µM and > 100 µM	75 µM and > 100 µM	75 µM and > 100 µM	75 µM and > 100 µM				
C/C(CCn1[nH]c(=O)ccc1=O)=N\NC(=O)C(N)=O		> 100				> 100 µM				> 100 µM		> 100	> 100 µM	> 100 µM	> 100 µM	> 100 µM				
CCc1ccccc1NC(=O)C(=O)C(C#N)c1ccccc1Cl (stereo unspecified)		> 100				> 100 µM				> 100 µM		> 100	> 100 µM	> 100 µM	> 100 µM	> 100 µM				
Oc1c(C(Nc2ccccn2)c2cccc(Oc3ccccc3)c2)ccc2cccnc12 (stereo unspecified)	0.262	6.22	0.479 µM	13 µM	0.538	21.5 µM	0.483	20.1 µM	0.422	20.7 µM	0.362	14	30.1 µM		13.4 µM	17.8 µM	1.63		0.361	0.63
CC(C)(C)N/N=C(\C(=O)Nc1cccc(Cl)c1)C1C(=O)Nc2ccccc2S1=O (stereo unspecified)						> 100 µM				> 100 µM			> 100 µM	> 100 µM	> 100 µM	> 100 µM				
O=C(Cc1nc2ccc(C(=O)c3ccccc3)cc2[nH]c1=O)C(=O)Nc1nc2ccccc2[nH]1						> 100 µM				> 100 µM			> 100 µM	> 100 µM	> 100 µM	> 100 µM				
O=C(O)CN(c1ccccc1)S(=O)(=O)c1cccc([N+](=O)[O-])c1		> 100				> 100 µM				> 100 µM		> 100	> 100 µM	> 100 µM	> 100 µM	> 100 µM				
O=C(CCCn1c2c(sc3ccccc32)c(=O)n2nnc(-c3ccccc3)c12)NCCc1cnc[nH]1	1.41	2.85	6.9 µM	18.2 µM	0.0997	2.07 µM	0.0603	2.21 µM	0.0245	0.362 µM	0.128	1.75	2.36 µM		4.33 µM	2.36 µM	0.719		1.84	1.01
O=C1C(=c2ccc(=C3C(=O)c4ccc([N+](=O)[O-])cc4[N+]3=O)cc2)N([O-])c2cc([N+](=O)[O-])ccc21	> 100	> 100			> 100	> 100 µM			> 100	> 100 µM	> 100	> 100	> 100 µM	> 100 µM	> 100 µM	> 100 µM	> 100	> 100	> 100	> 100
COC(=O)Oc1nn(C(=O)OC)c(=O)c2ccccc12				> 100 µM		> 100 µM		> 100 µM		> 100 µM		> 100		> 100 µM		> 100 µM				
